The text below walks through data of PubChem BioAssay (NCI).

Some test systems named below: UACC-257 melanoma; SF-539 CNS; 786-0 renal; U251 CNS; HT29 colon; T-47D breast; MCF7 breast; COLO 205 colon; HL-60(TB) leukemia; SR leukemia.
Holding throughout (experiment): DTP human tumour cell line panel, 48 h

SMILES strings stand for the structures.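 1) Cells in 96-well plates. 2) Compound, 48 h, 5 concentrations. 3) Linear interpolation between surrounding doses. 4) Unreached endpoint = highest concentration. GI50 marks 50% less growth. At the TGI there is no net growth.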 Some results are limits rather than exact numbers.

The term GI50 denotes the concentration that inhibits growth by half. The term TGI denotes the concentration at which net growth stops. For `O=c1c2sc(=S)n(-c3ccc(F)cc3)c2ncn1Cc1ccc(F)cc1F`, the GI50 is more than 100 µM in the experiment with UACC-257 melanoma; more than 100 µM in the experiment with SF-539 CNS; 80.5 µM in the experiment with 786-0 renal; more than 100 µM in the experiment with U251 CNS; more than 100 µM with HT29 colon; more than 100 µM with T-47D breast. Further, the GI50 in the experiment on MCF7 breast was 67.7 µM; in the experiment on COLO 205 colon, more than 100 µM; in the experiment with HL-60(TB) leukemia, more than 100 µM. For the same compound, the TGI in the experiment on UACC-257 melanoma, with SF-539 CNS, with 786-0 renal, in the experiment with U251 CNS, in the experiment with HT29 colon and in the experiment with T-47D breast was more than 100 µM in each case. The TGI with MCF7 breast, in the experiment on COLO 205 colon and in the experiment with HL-60(TB) leukemia was more than 100 µM in each case.

Regarding `COc1cc2nc(-c3ccc(Cl)cc3)cc(OCCCN3CCCCC3)c2cc1OC`, the GI50 with UACC-257 melanoma is 1.92 µM; with 786-0 renal, 2.62 µM; in the experiment on U251 CNS it was 1.89 µM; in the experiment on T-47D breast it was 1.31 µM; in the experiment with MCF7 breast, 1.55 µM; with SR leukemia, 0.374 µM. In addition, in the experiment with COLO 205 colon, the GI50 is 0.582 µM. Further, the TGI in the experiment on UACC-257 melanoma is 4.46 µM; with 786-0 renal, more than 100 µM; in the experiment on U251 CNS, more than 100 µM; in the experiment with T-47D breast, more than 100 µM; in the experiment with MCF7 breast it was 4.11 µM; with SR leukemia it was 2.85 µM. This compound came in with a TGI with COLO 205 colon of more than 100 µM.

As for `CC(C)=CC/C=C(/C)[C@H]1CC[C@]2(C)[C@@H]1CC[C@@H]1[C@@]3(C)CCCNC(C)(C)[C@@H]3CC[C@]12C`, the GI50 in the experiment on UACC-257 melanoma is 3.05 µM; in the experiment on SF-539 CNS, 2.85 µM; with 786-0 renal, 2.38 µM; in the experiment with U251 CNS it was 1.75 µM; in the experiment with HT29 colon, 1.71 µM; in the experiment on T-47D breast, 2.09 µM. For the same compound, the GI50 with MCF7 breast was 2 µM; with COLO 205 colon, 1.8 µM; in the experiment on HL-60(TB) leukemia it was 1.8 µM. Also, the TGI with UACC-257 melanoma is 11 µM; in the experiment with SF-539 CNS it was 9.13 µM; with 786-0 renal, 6.29 µM; in the experiment on U251 CNS, 3.28 µM; with HT29 colon, 3.67 µM; with T-47D breast, 5.03 µM. Besides, the values for the TGI in the experiment with MCF7 breast, in the experiment on COLO 205 colon and in the experiment on HL-60(TB) leukemia were 3.92 µM, 3.53 µM and 3.73 µM, respectively.

Turning to `O=C(OC(CNc1cc(=O)n(Cc2ccccc2)c(=O)n1Cc1ccccc1)CN1CCCC1)c1ccccc1` (stereo not drawn), the GI50 with UACC-257 melanoma was more than 100 µM; in the experiment on SF-539 CNS, more than 100 µM; with 786-0 renal, more than 100 µM; in the experiment with U251 CNS, more than 100 µM; in the experiment with HT29 colon it was 35 µM; in the experiment on T-47D breast, 18.9 µM. Further, the GI50 in the experiment on MCF7 breast and in the experiment on COLO 205 colon was more than 100 µM each time. Further, the TGI with UACC-257 melanoma, with SF-539 CNS, in the experiment on 786-0 renal, in the experiment with U251 CNS, with HT29 colon and with T-47D breast was more than 100 µM each time. The TGI in the experiment on MCF7 breast and in the experiment with COLO 205 colon was more than 100 µM in each case.

As to `NC(=O)NC1C(c2ccccc2)=C1c1ccccc1`, the TGI in the experiment on UACC-257 melanoma is 38.4 µM; with SF-539 CNS, 31.2 µM; in the experiment on 786-0 renal, 73.8 µM; with U251 CNS it was 32.7 µM; in the experiment with HT29 colon, 46.1 µM; in the experiment with T-47D breast, more than 100 µM. For the same compound, the TGI with MCF7 breast stood at 33.6 µM; with COLO 205 colon it was 27.9 µM; in the experiment with HL-60(TB) leukemia, 68.3 µM.

For `S=C1NC2(CCCCCC2)NN1c1ccccc1`, the TGI in the experiment on UACC-257 melanoma, in the experiment with 786-0 renal, in the experiment with U251 CNS, in the experiment with HT29 colon, with T-47D breast and in the experiment with MCF7 breast was more than 100 µM in each case. For the same compound, the TGI with SR leukemia is more than 100 µM; in the experiment with COLO 205 colon, 0.431 µM; in the experiment on HL-60(TB) leukemia, 3.64 µM.

Turning to `CCCCCCCCCCCCOC1C(C(COC2OC(C3COC(C)(C)O3)C3OC(C)(C)OC23)NC(=O)Nc2ccc(C(=O)O)cc2)OC2OC(C)(C)OC21` (stereo not drawn), the GI50 with UACC-257 melanoma is 2.38 µM; in the experiment with SF-539 CNS it was 1.72 µM; in the experiment on 786-0 renal, 2.24 µM; in the experiment on U251 CNS it was 3.3 µM; in the experiment with HT29 colon, 2.01 µM; in the experiment with T-47D breast, 3.39 µM. Moreover, the GI50 was 2.84 µM in the experiment on MCF7 breast, 2.71 µM in the experiment on COLO 205 colon and 2.12 µM with HL-60(TB) leukemia. In addition, the TGI in the experiment on UACC-257 melanoma came to 5.79 µM; in the experiment with SF-539 CNS, 3.39 µM; with 786-0 renal, 5.49 µM; in the experiment on U251 CNS, 11.1 µM; in the experiment with HT29 colon, 6.88 µM; in the experiment on T-47D breast, 13.5 µM. In addition, the TGI in the experiment with MCF7 breast was 10.8 µM; with COLO 205 colon, 9.05 µM; in the experiment on HL-60(TB) leukemia, 5.45 µM.

On to `[Cl][Hg][c]1cc(Br)cc(Br)c1`, for which the GI50 in the experiment on UACC-257 melanoma is 10 µM; in the experiment with SF-539 CNS, 1.65 µM; in the experiment on 786-0 renal, 1.69 µM; in the experiment on U251 CNS it was 0.441 µM; with HT29 colon, 2.62 µM; in the experiment with T-47D breast, 2 µM. In addition, the GI50 in the experiment on SR leukemia was 0.866 µM; in the experiment with COLO 205 colon, 2.14 µM; in the experiment on HL-60(TB) leukemia it was 1.95 µM. The TGI in the experiment on UACC-257 melanoma turned out to be 21.6 µM; in the experiment with SF-539 CNS, 3.31 µM; with 786-0 renal it was 3.2 µM; in the experiment on U251 CNS it was 1.67 µM; in the experiment with HT29 colon, 10.6 µM; in the experiment on T-47D breast, 7.88 µM. Also, the TGI in the experiment with SR leukemia is 3.52 µM; in the experiment on COLO 205 colon it was 4.97 µM; in the experiment with HL-60(TB) leukemia, 4.24 µM.

On to `CCC(C)n1ncn(-c2ccc(N3CCN(c4ccc(OCC5COC(Cn6cncn6)(c6ccc(Cl)cc6Cl)O5)cc4)CC3)cc2)c1=O` (stereo not drawn), for which the GI50 in the experiment on UACC-257 melanoma was 57.7 µM; in the experiment with SF-539 CNS it was 7.73 µM; in the experiment on 786-0 renal, 0.559 µM; with U251 CNS, 4.03 µM; in the experiment on HT29 colon, 0.867 µM; in the experiment on T-47D breast, 1.27 µM. The GI50 was 22.2 µM in the experiment with MCF7 breast and 4.12 µM with COLO 205 colon. Also, the TGI in the experiment with UACC-257 melanoma is more than 100 µM; in the experiment on SF-539 CNS, more than 100 µM; in the experiment with 786-0 renal, 32.7 µM; in the experiment with U251 CNS, more than 100 µM; with HT29 colon, more than 100 µM; with T-47D breast, 74.3 µM. For the same compound, the TGI in the experiment with MCF7 breast and in the experiment on COLO 205 colon was more than 100 µM throughout.

For `CCOC(=O)CCCn1c(SC)nc2[nH]cc(-c3ccccc3)c2c1=O`, the GI50 is 22.7 µM with UACC-257 melanoma; 18.4 µM in the experiment with SF-539 CNS; 6.81 µM with 786-0 renal; 16.8 µM in the experiment with U251 CNS; 19.5 µM in the experiment on HT29 colon; 18.2 µM with T-47D breast. Moreover, the GI50 in the experiment on MCF7 breast was 18.4 µM; in the experiment with COLO 205 colon, 24.2 µM; with HL-60(TB) leukemia, 1.05 µM. The TGI worked out at 44.3 µM in the experiment on UACC-257 melanoma; 46.1 µM with SF-539 CNS; 44.8 µM in the experiment with 786-0 renal; 58.5 µM in the experiment on U251 CNS; 59.7 µM in the experiment with HT29 colon; 61.4 µM in the experiment with T-47D breast. Moreover, the TGI in the experiment with MCF7 breast worked out at 76.6 µM; with COLO 205 colon it was 56.1 µM; in the experiment with HL-60(TB) leukemia it was 15 µM.

For the compound `CC(C)CCN1c2nc(Nc3cc(F)c(O)c(F)c3)ncc2N(C)C(=O)C1C` (stereo not drawn), the GI50 in the experiment on UACC-257 melanoma is 17.1 µM; in the experiment on SF-539 CNS, 4.26 µM; in the experiment on 786-0 renal it was 7.09 µM; with U251 CNS it was 5.55 µM; in the experiment on HT29 colon, 5.83 µM; with T-47D breast it was 6.36 µM. In addition, the GI50 in the experiment with MCF7 breast was 2.85 µM; in the experiment on COLO 205 colon it was 14.6 µM; with HL-60(TB) leukemia it was 2.14 µM. For the same compound, the TGI with UACC-257 melanoma was more than 88.2 µM; with SF-539 CNS, 21.8 µM; in the experiment on 786-0 renal, 52.9 µM; in the experiment with U251 CNS, 58.6 µM; with HT29 colon, 46.7 µM; in the experiment on T-47D breast it was 25.9 µM. The total growth inhibition concentration (TGI) with MCF7 breast amounted to 18.1 µM; with COLO 205 colon, 29.3 µM; in the experiment on HL-60(TB) leukemia, 6.47 µM.

As for `C=C1C(=O)OC2CCN3CC=C(COC(=O)C(C)(O)C4(CO4)C1C)C23` (stereo not drawn), the TGI in the experiment on UACC-257 melanoma, in the experiment on 786-0 renal, in the experiment on U251 CNS, with HT29 colon, in the experiment with T-47D breast and in the experiment on MCF7 breast was more than 100 µM each time. For the same compound, the TGI in the experiment on SR leukemia and with COLO 205 colon was more than 100 µM in each case.

For the compound `CCCCCCCCCCCCCC1=NC(C)(C)CN1C(C)C`, the GI50 in the experiment on UACC-257 melanoma was 1.92 µM; in the experiment with SF-539 CNS, 1.65 µM; in the experiment on 786-0 renal it was 1.72 µM; in the experiment with U251 CNS, 1.64 µM; with HT29 colon, 0.422 µM; with T-47D breast, 1.84 µM. In addition, the GI50 with MCF7 breast was 1.67 µM; in the experiment on COLO 205 colon, 1.41 µM; in the experiment with HL-60(TB) leukemia, 1.09 µM. In addition, the TGI came out at 3.39 µM in the experiment on UACC-257 melanoma; 3.01 µM with SF-539 CNS; 3.13 µM in the experiment on 786-0 renal; 3 µM in the experiment on U251 CNS; 1.47 µM in the experiment with HT29 colon; 3.8 µM in the experiment on T-47D breast. The TGI with MCF7 breast amounted to 3.13 µM; in the experiment with COLO 205 colon, 2.71 µM; in the experiment on HL-60(TB) leukemia, 2.72 µM.
